The values that follow come from patent US9062041B2 (Bayer Intellectual Property GmbH, priority 2011, dated 2015).

Common to all, as to format: cell-based
The target of one assay is T1, human PGD receptor (Homo sapiens, UniProt Q13258).
T1 sequence (Q13258 1-359): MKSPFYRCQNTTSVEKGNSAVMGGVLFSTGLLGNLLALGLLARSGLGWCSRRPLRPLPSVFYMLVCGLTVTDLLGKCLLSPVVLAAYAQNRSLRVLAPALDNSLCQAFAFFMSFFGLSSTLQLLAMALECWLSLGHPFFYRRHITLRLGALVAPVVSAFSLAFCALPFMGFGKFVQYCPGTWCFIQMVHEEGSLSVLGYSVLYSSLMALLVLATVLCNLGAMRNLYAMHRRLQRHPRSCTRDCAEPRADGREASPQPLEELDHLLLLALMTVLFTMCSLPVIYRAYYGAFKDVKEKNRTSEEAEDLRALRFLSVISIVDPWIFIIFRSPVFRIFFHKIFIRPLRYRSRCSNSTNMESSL
The experiment in a line: cAMP antagonism test on the human prostaglandin D receptor (HTRF cAMP detection). As to conditions: selectivity towards hDP, IC50 measured by cAMP antagonism test. Put shortly:
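HTRF competition read-out (665/620 nm ratio ×10000), where higher FRET means less cAMP, i.e. antagonism. Compounds (0.8 nM–16.5 μM) were preincubated 20 min at RT with cells and cAMP-d2, PGD2 (3× solution, 6 nM) in IBMX-containing PBS added for 30 min at RT, then cells lysed 20 min.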

The target in assay [1] is EP2 subtype of the human PGE2 receptor (Homo sapiens, UniProt P43116). The experiment in a line: cAMP antagonism test on the human EP2 receptor (HTRF cAMP detection). As to conditions: hEP2 receptor, read-out: Antagonism hEP2 IC50. In a few lines:
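Read-out is a competitive HTRF for cAMP: lysate cAMP displaces cAMP-d2 from Eu cryptate-labelled antibody, and antagonism raises the 665/620 nm ratio. Compound (0.8 nM–16.5 μM) added to EP2 cells 20 min at RT before 60 min PGE2 challenge (3× stock 1.5 nM) with IBMX, followed by 20 min lysis.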

Assay [2] deals with EP4 subtype of the human PGE2 receptor (Homo sapiens, UniProt P35408). The experiment in a line: cAMP antagonism test on the human EP4 receptor (HTRF cAMP detection). The note with it: selectivity towards hEP4, IC50 measured by cAMP antagonism test. In a few lines: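 Competitive HTRF cAMP read-out (cAMP-d2 vs Eu-cryptate anti-cAMP antibody, 665/620 nm ratio) on lysed human EP4 cells. Compound (0.8 nM–16.5 μM) applied 20 min at RT before 60 min PGE2 challenge (3× solution 0.3 nM, IBMX present); 20 min lysis precedes reading.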
Chain of EP4 subtype of the human PGE2 receptor (P35408 whole entry): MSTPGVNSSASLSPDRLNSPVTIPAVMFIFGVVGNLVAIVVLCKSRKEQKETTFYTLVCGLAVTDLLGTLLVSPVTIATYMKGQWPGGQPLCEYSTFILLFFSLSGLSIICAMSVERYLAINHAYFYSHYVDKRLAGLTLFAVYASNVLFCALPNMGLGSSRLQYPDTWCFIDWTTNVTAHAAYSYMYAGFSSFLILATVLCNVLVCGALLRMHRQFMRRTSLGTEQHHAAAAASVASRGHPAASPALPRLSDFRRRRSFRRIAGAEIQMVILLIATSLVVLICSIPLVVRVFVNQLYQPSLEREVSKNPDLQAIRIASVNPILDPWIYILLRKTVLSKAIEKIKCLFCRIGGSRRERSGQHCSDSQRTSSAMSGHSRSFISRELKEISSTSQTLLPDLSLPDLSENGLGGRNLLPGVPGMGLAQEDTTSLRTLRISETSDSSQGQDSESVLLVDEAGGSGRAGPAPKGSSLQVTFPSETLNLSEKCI

Chain of EP2 subtype of the human PGE2 receptor (P43116 whole entry): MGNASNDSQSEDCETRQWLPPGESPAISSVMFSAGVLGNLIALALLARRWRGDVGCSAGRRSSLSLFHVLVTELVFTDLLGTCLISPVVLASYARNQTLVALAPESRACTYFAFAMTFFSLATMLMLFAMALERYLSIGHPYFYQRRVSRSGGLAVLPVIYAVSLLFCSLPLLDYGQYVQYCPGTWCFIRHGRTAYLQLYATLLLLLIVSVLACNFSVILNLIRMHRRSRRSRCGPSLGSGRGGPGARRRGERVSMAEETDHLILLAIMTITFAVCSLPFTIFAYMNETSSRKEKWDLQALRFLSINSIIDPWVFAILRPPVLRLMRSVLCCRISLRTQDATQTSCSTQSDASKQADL

Regarding `Cc1c(C(=O)NCC(F)(F)F)ccc2nn(CC3CCN(C(=O)c4ccc(Cl)cc4)CC3)cc12` [Example 72, 2-{[1-(4-chlorobenzoyl)piperidin-4-yl]methyl}-4-methyl-N-(2,2,2-trifluoroethyl)-2H-indazol-5-carboxamide], the “Selectivity hEP2/hDP” value on human PGD receptor is listed as “xxx (xxx > 100)”. For the same compound, the IC50 in assay [1] was determined as 120 nM. Moreover, the “Selectivity hEP2/hEP4” value in assay [2] is on record as “xxx (xxx > 100)”.

In the case of `Cc1cc2nn(CC3CCN(C(=O)c4ccc(C(F)(F)F)cc4)CC3)cc2cc1C(=O)NCCN1CCOCC1` [Example 79, 6-methyl-N-(2-morpholinoethyl)-2-({1-[4-(trifluoro-methyl)benzoyl]-piperidin-4-yl}-methyl)-2H-indazol-5-carboxamide], the “Selectivity hEP2/hDP” value at human PGD receptor was “xxx (xxx > 100)”. Further, the half-maximal inhibitory concentration (IC50) in assay [1] was determined as 125 nM. Also, the “Selectivity hEP2/hEP4” value in assay [2] is “xxx (xxx > 100)”.

In the case of `COCCNC(=O)c1ccc2nn(CC3CN(C(=O)c4ccc(Cl)cc4)C3)cc2c1OC` [Example 214, 2-{[1-(4-chlorobenzoyl)azetidin-3-yl]methyl}-4-methoxy-N-(2-methoxyethyl)-2H-indazol-5-carboxamide], the “Selectivity hEP2/hDP” value on human PGD receptor is given as “xxx (xxx > 100)”. In addition, the IC50 in assay [1] stood at 64.9 nM. Further, the “Selectivity hEP2/hEP4” value in assay [2] is on record as “xxx (xxx > 100)”.

As for `COC(C)CNC(=O)c1ccc2nn(CC3CN(C(=O)c4ccc(Cl)cc4)C3)cc2c1C` (single isomer, unassigned) [Example 140, (S or R)-2-{[1-(4-chlorobenzoyl)azetidin-3-yl]methyl}-N-(2-methoxypropyl)-4-methyl-2H-indazol-5-carboxamide], at human PGD receptor, the “Selectivity hEP2/hDP” value is reported as “xxx (xxx > 100)”. Also, in assay [1], the IC50 was determined as 55.3 nM. In assay [2], the “Selectivity hEP2/hEP4” value is reported as “xxx (xxx > 100)”.

Turning to `COCCNC(=O)c1ccc2nn(CC3CCN(C(=O)c4ccc(-c5ccc(C)nc5)cc4)CC3)cc2c1C` [Example 377, N-(2-methoxyethyl)-4-methyl-2-({1-[4-(6-methylpyridin-3-yl)benzoyl]piperidin-4-yl}methyl)-2H-indazol-5-carboxamide], the “Selectivity hEP2/hDP” value at human PGD receptor is given as “xxx (xxx > 100)”. Moreover, the IC50 in assay [1] was 27.3 nM. Moreover, the “Selectivity hEP2/hEP4” value in assay [2] is on record as “xxx (xxx > 100)”.

On to `Cc1c(C(=O)NCC(F)(F)F)ccc2nn(CC3CCN(C(=O)c4cc5ccccc5[nH]4)CC3)cc12` [Example 296, 2-{[1-(1H-Indol-2-ylcarbonyl)piperidin-4-yl]methyl}-4-methyl-N-(2,2,2-trifluoroethyl)-2H-indazol-5-carboxamide], for which the “Selectivity hEP2/hDP” value on human PGD receptor is given as “xxx (xxx > 100)”. Further, in assay [1], the IC50 worked out at 29.7 nM. The “Selectivity hEP2/hEP4” value in assay [2] is recorded as “xxx (xxx > 100)”.

Turning to `Cc1c(C(=O)NCC(F)(F)F)ccc2nn(CC3CCN(C(=O)c4ccc(-c5ccc(C(F)(F)F)cn5)cc4)CC3)cc12` [Example 312, 4-methyl-N-(2,2,2-trifluoroethyl)-2-[(1-{4-[5-(trifluoromethyl)pyridin-2-yl]-benzoyl}piperidin-4-yl)methyl]-2H-indazol-5-carboxamide], the “Selectivity hEP2/hDP” value on human PGD receptor is “xxx (xxx > 100)”. The IC50 in assay [1] stood at 158 nM. In assay [2], the “Selectivity hEP2/hEP4” value is recorded as “xxx (xxx > 100)”.

With `Cc1c(C(=O)NCC(C)(C)C)ccc2nn(CC3CCN(C(=O)c4ccc(Oc5ccc(C(F)(F)F)cc5)cc4)CC3)cc12` [Example 405, 4-methyl-N-neopentyl-2-[(1-{4-[4-(trifluoromethyl)phenoxy]benzoyl}piperidin-4-yl)methyl]-2H-indazol-5-carboxamide], the “Selectivity hEP2/hDP” value at human PGD receptor is “x (x: 1-10)”. The IC50 in assay [1] is 2140 nM. For the same compound, the “Selectivity hEP2/hEP4” value in assay [2] is given as “x (x: 1-10)”.

On to `COCCNC(=O)c1ccc2nn(CC3CCN(C(=O)c4ccc(-c5ccc(OC)cn5)cc4)CC3)cc2c1C` [Example 373, N-(2-methoxyethyl)-2-({1-[4-(5-methoxypyridin-2-yl)benzoyl]piperidin-4-yl}-methyl)-4-methyl-2H-indazol-5-carboxamide], for which the “Selectivity hEP2/hDP” value on human PGD receptor is listed as “xxx (xxx > 100)”. Besides, in assay [1], the IC50 amounted to 40.7 nM. For the same compound, the “Selectivity hEP2/hEP4” value in assay [2] is “xxx (xxx > 100)”.

`COCCNC(=O)c1cc2cn(CC3CCN(C(=O)c4ccc(C(F)(F)F)cc4)CC3)nc2cc1C` [Example 211, N-(2-methoxyethyl)-6-methyl-2-({1-[4-(trifluoromethyl)benzoyl]piperidin-4-yl}-methyl)-2H-indazol-5-carboxamide]: the “Selectivity hEP2/hDP” value on human PGD receptor is recorded as “xxx (xxx > 100)”. Besides, the half-inhibitory concentration (IC50) in assay [1] came to 50.1 nM. For the same compound, in assay [2], the “Selectivity hEP2/hEP4” value is “xxx (xxx > 100)”.

Take `COCCNC(=O)c1ccc2nn(CC3CN(C(=O)c4ccc(C5CC5)cc4)C3)cc2c1C` [Example 124, 2-{[1-(4-cyclopropylbenzoyl)azetidin-3-yl]methyl}-N-(2-methoxyethyl)-4-methyl-2H-indazol-5-carboxamide]: on human PGD receptor, the “Selectivity hEP2/hDP” value is reported as “xxx (xxx > 100)”. The IC50 in assay [1] was 7.99 nM. Besides, the “Selectivity hEP2/hEP4” value in assay [2] was “xxx (xxx > 100)”.

Take `Cc1cc2nn(CC3CCN(C(=O)c4cccc(C(F)(F)F)c4)CC3)cc2cc1C(=O)NCCN1CCOCC1` [Example 82, 6-methyl-N-(2-morph-olinoethyl)-2-({1-[3-(trifluoromethyl)-benzoyl]piperidin-4-yl}methyl)-2H-indazol-5-carboxamide]: the “Selectivity hEP2/hDP” value on human PGD receptor is reported as “xx (xx: 10-100)”. Moreover, the concentration for half-maximal inhibition (IC50) in assay [1] stood at 218 nM. Moreover, the “Selectivity hEP2/hEP4” value in assay [2] is on record as “xx (xx: 10-100)”.

Consider `Cc1c(C(=O)NCCOC(C)C)ccc2nn(CC3CCN(C(=O)c4ccc(C(F)(F)F)cc4)CC3)cc12` [Example 99, N-(2-isopropoxy-ethyl)-4-methyl-2-({1-[4-(trifluoro-methyl)benzoyl]-piperidin-4-yl}-methyl)-2H-indazol-5-carboxamide], for which the “Selectivity hEP2/hDP” value on human PGD receptor was “xxx (xxx > 100)”. Besides, in assay [1], the IC50 came out at 10.4 nM. Further, the “Selectivity hEP2/hEP4” value in assay [2] was “xxx (xxx > 100)”.

As for `COCCNC(=O)c1ccc2nn(CC3CCN(C(=O)c4ccc(Cl)cc4)CC3)cc2c1OCC(F)(F)F` [Example 232, 2-{[1-(4-chlorobenzoyl)piperidin-4-yl]methyl}-N-(2-methoxyethyl)-4-(2,2,2-trifluoroethoxy)-2H-indazol-5-carboxamide], at human PGD receptor, the “Selectivity hEP2/hDP” value is given as “xxx (xxx > 100)”. Besides, in assay [1], the IC50 worked out at 38.3 nM. Moreover, in assay [2], the “Selectivity hEP2/hEP4” value was “xxx (xxx > 100)”.

On to `Cc1c(C(=O)NCC(C)OC2CCC2)ccc2nn(CC3CN(C(=O)c4ccc(Cl)cc4)C3)cc12` (single isomer, unassigned) [Example 156, (R or S)-2-{[1-(4-chlorobenzoyl)azetidin-3-yl]methyl}-N-[2-(cyclobutyloxy)-propyl]-4-methyl-2H-indazol-5-carboxamide], for which the “Selectivity hEP2/hDP” value at human PGD receptor was “xx (xx: 10-100)”. Further, in assay [1], the half-maximal inhibitory concentration (IC50) is 184 nM. In assay [2], the “Selectivity hEP2/hEP4” value is reported as “xx (xx: 10-100)”.

Take `COCCNC(=O)c1ccc2nn(CC3CCN(C(=O)c4ccc(Oc5cccc(C(F)(F)F)c5)cc4)CC3)cc2c1C` [Example 355, N-(2-methoxyethyl)-4-methyl-2-[(1-{4-[3-(trifluoromethyl)phenoxy]benzoyl}-piperidin-4-yl)methyl]-2H-indazol-5-carboxamide]: at human PGD receptor, the “Selectivity hEP2/hDP” value was “xxx (xxx > 100)”. For the same compound, the IC50 in assay [1] was 5.39 nM. Further, the “Selectivity hEP2/hEP4” value in assay [2] was “xxx (xxx > 100)”.

On to `COCCNC(=O)c1ccc2nn(CC3CCN(C(=O)c4cnc(-c5ccccc5)o4)CC3)cc2c1C` [Example 339, N-(2-methoxyethyl)-4-methyl-2-({1-[(2-phenyloxazol-5-yl)carbonyl]piperidin-4-yl}methyl)-2H-indazol-5-carboxamide], for which the “Selectivity hEP2/hDP” value on human PGD receptor was “xxx (xxx > 100)”. For the same compound, the IC50 in assay [1] turned out to be 7.15 nM. The “Selectivity hEP2/hEP4” value in assay [2] was “xxx (xxx > 100)”.

As to `COCCNC(=O)c1ccc2nn(CC3CCN(C(=O)c4ccc(-c5cncc(C(F)(F)F)c5)cc4)CC3)cc2c1C` [Example 387, N-(2-methoxyethyl)-4-methyl-2-[(1-{4-[5-(trifluoromethyl)pyridin-3-yl]-benzoyl}piperidin-4-yl)methyl]-2H-indazol-5-carboxamide], the “Selectivity hEP2/hDP” value at human PGD receptor is on record as “xxx (xxx > 100)”. Besides, the IC50 in assay [1] worked out at 13.2 nM. Further, the “Selectivity hEP2/hEP4” value in assay [2] is “xxx (xxx > 100)”.

Turning to `COCCNC(=O)c1ccc2nn(CC3CCN(C(=O)c4ccc(OC)cc4)CC3)cc2c1C` [Example 21, 2-{[1-(4-methoxy-benzoyl)piperidin-4-yl]methyl}-N-(2-methoxyethyl)-4-methyl-2H-indazol-5-carboxamide], at human PGD receptor, the “Selectivity hEP2/hDP” value is “xxx (xxx > 100)”. In addition, the IC50 in assay [1] came to 35.8 nM. Moreover, the “Selectivity hEP2/hEP4” value in assay [2] was “xxx (xxx > 100)”.
